Measurements from publication PMC8161495 (ACS Central Science, 2021).

Target: T1, full-length rat TRPV2 (rTRPV2) (Rattus norvegicus, UniProt Q9WUD2)
T1 sequence (Q9WUD2 1-761): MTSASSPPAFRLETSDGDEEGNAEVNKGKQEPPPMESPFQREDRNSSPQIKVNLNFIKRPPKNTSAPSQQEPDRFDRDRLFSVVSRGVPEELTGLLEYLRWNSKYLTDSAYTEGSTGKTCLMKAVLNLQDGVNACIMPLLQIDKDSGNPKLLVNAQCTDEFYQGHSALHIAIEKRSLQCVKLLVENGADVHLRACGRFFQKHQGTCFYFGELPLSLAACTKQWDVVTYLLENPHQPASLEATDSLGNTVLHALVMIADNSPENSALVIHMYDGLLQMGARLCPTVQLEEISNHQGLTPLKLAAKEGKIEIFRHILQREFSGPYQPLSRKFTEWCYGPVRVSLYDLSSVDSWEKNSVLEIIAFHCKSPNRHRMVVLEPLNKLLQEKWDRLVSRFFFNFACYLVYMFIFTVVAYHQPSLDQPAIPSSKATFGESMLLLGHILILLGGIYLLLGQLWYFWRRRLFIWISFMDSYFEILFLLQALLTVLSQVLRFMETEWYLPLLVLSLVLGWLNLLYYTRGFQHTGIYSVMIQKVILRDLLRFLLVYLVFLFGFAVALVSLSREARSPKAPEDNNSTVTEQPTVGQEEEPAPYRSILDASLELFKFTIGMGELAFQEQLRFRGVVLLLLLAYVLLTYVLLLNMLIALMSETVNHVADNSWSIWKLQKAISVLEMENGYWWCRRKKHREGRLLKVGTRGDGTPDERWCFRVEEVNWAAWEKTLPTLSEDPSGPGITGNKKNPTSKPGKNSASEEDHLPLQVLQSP
Assay: cryo-EM structure
Assay type: binding

COc1cc(/C=C/C(=O)N2CCC=CC2=O)cc(OC)c1OC [PL, piperlongumine]
cryo-EM structure (3.5 Å, C4 symmetry): The cryo-EM density map and atomic coordinates of PL-bound rat TRPV2 are deposited
